Here are results for 13 molecules from patent US5977110A, “Substituted cyclohexylamines as central nervous systems agents” (Warner-Lambert Company, priority 1998, dated 1999).

Where a name gives a salt, the structure may show the parent alone. Read-outs that look alike come from different tables or passages of the source.

Assay [1] deals with spontaneous locomotor activity in mice. Nature of the assay: Inhibition of spontaneous locomotor activity in mice, a test predictive of antipsychotic activity. The format is in vivo. As to conditions: Mus musculus, read-out: Inhibition of Locomotor Activity in Mice (ED50, mg/kg, IP). The method, then:
(§1) The compounds of Formula I are valuable dopaminergic and serotonergic agents. […] Thus, the compounds of Formula I were tested for their ability to inhibit spontaneous locomotor activity in mice, a test predictive of antipsychotic activity, according to the assay described by McLean J. R., et al., Pharmacology, Biochemistry and Behavior, 1978;8:97-99; for their ability to bind to the dopamine D2 receptor using [^3 H]-2-(N-propyl-N-2-thienylethylamino)-5-hydroxytetralin ([^3 H)N-0437) as the ligand according to the method disclosed in Van der Weide J., et al., Eur. J. Pharmacol., 1987;134:211-219; and for their ability to bind to the serotonin 5HT1A receptor using [^3 H]-8-hydroxy-dipropylaminotetralin ([^3 H]-8-OH-DPAT) as the ligand according to the method disclosed in Peroutka S. J., et al., Brain Res., 1985;344:167-171. The above test methods are incorporated herein by reference. The data in the table show the dopaminergic and serotonergic activity of representative compounds of Formula I.

Assay [2] has as its target dopamine D2 receptor (h-D2 Receptors) (Homo sapiens, UniProt P14416). As to the kind of experiment: Inhibition of [^3 H]N-0437 Binding to h-D2 Receptors. As to conditions: [^3 H]N-0437 ligand. The method, then: Thus, the compounds of Formula I were tested for their ability to inhibit spontaneous locomotor activity in mice, a test predictive of antipsychotic activity, according to the assay described by McLean J. R., et al., Pharmacology, Biochemistry and Behavior, 1978;8:97-99; for their ability to bind to the dopamine D2 receptor using [^3 H]-2-(N-propyl-N-2-thienylethylamino)-5-hydroxytetralin ([^3 H)N-0437) as the ligand according to the method disclosed in Van der Weide J., et al., Eur. J. Pharmacol., 1987;134:211-219; and for their ability to bind to the serotonin 5HT1A receptor using [^3 H]-8-hydroxy-dipropylaminotetralin ([^3 H]-8-OH-DPAT) as the ligand according to the method disclosed in Peroutka S. J., et al., Brain Res., 1985;344:167-171. The above test methods are incorporated herein by reference.

Assay [3] concerns the target T1, serotonin 5HT1A receptor (Rat Hippocampus Membranes) (Rattus norvegicus, UniProt P19327).
T1 construct: Hippocampus; from tissue; host or cells: rat hippocampus membranes
T1 sequence (P19327 1-422): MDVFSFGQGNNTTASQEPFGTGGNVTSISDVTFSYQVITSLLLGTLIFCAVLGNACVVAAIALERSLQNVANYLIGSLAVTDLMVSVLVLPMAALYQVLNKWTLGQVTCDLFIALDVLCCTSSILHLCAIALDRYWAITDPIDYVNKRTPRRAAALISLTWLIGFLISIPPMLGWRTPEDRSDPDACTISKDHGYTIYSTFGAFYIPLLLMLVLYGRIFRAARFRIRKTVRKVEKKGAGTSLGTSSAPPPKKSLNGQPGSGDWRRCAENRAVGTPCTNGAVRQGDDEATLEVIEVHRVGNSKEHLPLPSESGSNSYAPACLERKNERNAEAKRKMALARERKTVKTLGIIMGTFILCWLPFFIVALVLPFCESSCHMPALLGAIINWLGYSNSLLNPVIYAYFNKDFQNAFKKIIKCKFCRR
As to the kind of experiment: Inhibition of [^3 H]8-OH-DPAT Binding to Rat Hippocampus Membranes. As to conditions: [^3 H]-8-OH-DPAT ligand. The method, then:
as §1

Sequence of dopamine D2 receptor (h-D2 Receptors) (P14416 whole entry): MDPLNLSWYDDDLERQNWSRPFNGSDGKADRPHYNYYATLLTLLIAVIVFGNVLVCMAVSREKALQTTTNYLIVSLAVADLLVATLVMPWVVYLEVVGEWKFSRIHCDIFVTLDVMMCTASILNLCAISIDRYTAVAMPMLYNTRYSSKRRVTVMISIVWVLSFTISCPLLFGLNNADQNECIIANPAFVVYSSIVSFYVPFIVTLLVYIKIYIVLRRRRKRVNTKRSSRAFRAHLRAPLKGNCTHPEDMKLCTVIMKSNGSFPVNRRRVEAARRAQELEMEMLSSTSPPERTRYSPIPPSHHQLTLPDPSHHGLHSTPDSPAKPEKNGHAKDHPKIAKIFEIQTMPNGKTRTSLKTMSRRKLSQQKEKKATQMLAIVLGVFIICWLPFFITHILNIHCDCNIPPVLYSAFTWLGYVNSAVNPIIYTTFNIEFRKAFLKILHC

On to `c1ccc(N2CCN(CC[C@H]3CC[C@H](Nc4ncccn4)CC3)CC2)nc1` [Example 1a, trans-{4-[2-(4-Pyridin-2-yl-piperazin-1-yl)-ethyl]-cyclohexyl}-pyrimidin-2-yl-amine], for which the ED50 in assay [1] (mice, IP, ED50) was 0.24 mg/kg.

On to `COc1ccccc1N1CCN(CC[C@H]2CC[C@H](Nc3ncccn3)CC2)CC1` [Example 13, trans-(4-{2-[4-(2-Methoxy-phenyl)-piperazin-1-yl]ethyl}-cyclohexyl)-pyrimidin-2-yl-amine], for which the ED50 in assay [1] (mice, IP, ED50) is 0.5 mg/kg.

Regarding `c1ccc(N2CCN(CC[C@H]3CC[C@H](Nc4ncccn4)CC3)CC2)cc1` [Example 2, trans-{4-[2-(4-Phenyl-piperazin-1-yl)-ethyl]cyclohexyl}-pyrimidin-2-yl-amine], the figures for the Ki in assay [2] and in assay [3] were 3.4 nM and 3.1 nM, respectively. For the same molecule, the ED50 in assay [1] (mice, IP, ED50) was 0.3 mg/kg.

Regarding `Cl.c1ccc(N2CCN(CC[C@H]3CC[C@@H](Nc4ncccn4)CC3)CC2)nc1` [Example 1, cis-{4-[2-(4-Pyridin-2-yl-piperazin-1-yl)-ethyl]-cyclohexyl}-pyrimidin-2-yl-amine hydrochloride], the Ki in assay [3] was 8.8 nM. Also, the ED50 in assay [1] (mice, IP, ED50) is 1.2 mg/kg.

In the case of `FC(F)(F)c1cccc(N2CCN(CC[C@H]3CC[C@H](Nc4ncccn4)CC3)CC2)c1` [Example 12, trans-Pyrimidin-2-yl-(4-{2-[4-(3-trifluoromethyl-phenyl)-piperazin-1-yl]-ethyl}-cyclohexyl)-amine], the ED50 in assay [1] (mice, IP, ED50) is 4.4 mg/kg.

On to `C1=C(c2ccccc2)CCN(CC[C@H]2CC[C@H](Nc3ncccn3)CC2)C1` [Example 16, trans-{4-[2-(4-Phenyl-3,6-dihydro-2H-pyridin-1-yl)-ethyl]-cyclohexyl}-pyrimidin-2-yl-amine], for which, in assay [1] (ip), the ED50 is 0.25 mg/kg.

As for `c1ccc(N2CCN(CC[C@H]3CC[C@H](Nc4nccs4)CC3)CC2)cc1` [Example 26, trans-{4-[2-(4-Phenyl-piperazin-1-yl)-ethyl]-cyclohexyl}-thiazol-2-yl-amine], the Ki turned out to be 2.35 nM in assay [2] and 7.9 nM in assay [3].

`c1cnc(N[C@H]2CC[C@H](CCN3CCN(c4nccs4)CC3)CC2)nc1` [Example 17, trans-Pyrimidin-2-yl-{4-[2-(4-thiazol-2-yl-piperazin-1-yl)-ethyl]-cyclohexyl}-amine]: in assay [1] (mice, IP, ED50), the ED50 was 0.3 mg/kg.

As to `c1ccc(N2CCN(CC[C@H]3CC[C@H](Nc4ccccn4)CC3)CC2)cc1` [Example 24, trans-{4-[2-(4-Phenyl-piperazin-1-yl)-ethyl]cyclohexyl}-pyridin-2-yl-amine], the Ki amounted to 1.4 nM in assay [2] and 1.2 nM in assay [3]. Moreover, the ED50 in assay [1] (mice, IP, ED50) was 0.2 mg/kg.

Regarding `c1ccc(N2CCN(CC[C@H]3CC[C@@H](Nc4ncccn4)CC3)CC2)cc1` [Example 9, cis-{4-[2-(4-Phenyl-piperazin-1-yl)-ethyl]-cyclohexyl}-pyrimidin-2-yl-aminehydrochloride], the Ki in assay [2] is 28 nM; in assay [3] it was 1.9 nM.

`c1cnc(N[C@H]2CC[C@H](CCN3CCN(c4cccnc4)CC3)CC2)nc1` [Example 20, trans-{4-[2-(4-Pyridin-3-yl-piperazin-1-yl)-ethyl]-cyclohexyl}-pyrimidin-2-yl-amine] had a Ki in assay [2] of 25.3 nM.

Turning to `c1ccc(N2CCN(CC[C@H]3CC[C@H](Nc4cnccn4)CC3)CC2)cc1` [Example 27, trans-{4-[2-(4-Phenyl-piperazin-1-yl)-ethyl]-cyclohexyl}-pyrazin-2-yl-amine], the Ki in assay [2] was 0.93 nM; in assay [3], 5.1 nM. Also, the ED50 in assay [1] (mice, IP, ED50) was 0.18 mg/kg.

On to `Fc1ccc(N2CCN(CC[C@H]3CC[C@H](Nc4ncccn4)CC3)CC2)cc1` [Example 15, trans-(4-{2-[4-(4-Fluoro-phenyl)-piperazin-1-yl]-ethyl}-cyclohexyl)-pyrimidin-2-yl-amine], for which the Ki is 8.3 nM in assay [2] and 4.4 nM in assay [3]. Besides, the ED50 in assay [1] (mice, IP, ED50) was 0.7 mg/kg.
